# Measurements published in ChEMBL document CHEMBL5543175, “Discovery of Selective Proteolysis-Targeting Chimera Degraders Targeting PTP1B as Long-Term Hypoglycemic Agents” (J Med Chem, 2024).
# Calls of active or inactive are those of the source. The calls are words filed in the database; no cut-off is given here.
# What was measured:
# [1] = biological target: T1, Protein cereblon/Tyrosine-protein phosphatase non-receptor type 1 (Homo sapiens, UniProt P18031+Q96SW2); assay: PROTAC activity at PTP1B/CRBN in insulin treated human HepG2 cells assessed as protein degradation at 125 nM incubated for 48 hrs by Western blot analysis relative to control; format: cell-based
# Target sequence in this assay (P18031 whole entry, looked up): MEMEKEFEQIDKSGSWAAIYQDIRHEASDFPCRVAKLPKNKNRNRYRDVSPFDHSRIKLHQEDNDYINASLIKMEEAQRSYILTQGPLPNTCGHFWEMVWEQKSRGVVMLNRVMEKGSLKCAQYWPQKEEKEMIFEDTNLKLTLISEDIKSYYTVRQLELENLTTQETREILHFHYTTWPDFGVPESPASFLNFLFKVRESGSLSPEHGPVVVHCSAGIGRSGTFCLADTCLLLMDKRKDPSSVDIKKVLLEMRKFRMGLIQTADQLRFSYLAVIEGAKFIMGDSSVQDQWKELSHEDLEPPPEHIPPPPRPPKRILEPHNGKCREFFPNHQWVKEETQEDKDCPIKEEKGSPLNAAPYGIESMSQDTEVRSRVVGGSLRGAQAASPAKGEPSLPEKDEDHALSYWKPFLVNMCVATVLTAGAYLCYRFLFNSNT
# Target sequence in this assay (Q96SW2 whole entry, looked up): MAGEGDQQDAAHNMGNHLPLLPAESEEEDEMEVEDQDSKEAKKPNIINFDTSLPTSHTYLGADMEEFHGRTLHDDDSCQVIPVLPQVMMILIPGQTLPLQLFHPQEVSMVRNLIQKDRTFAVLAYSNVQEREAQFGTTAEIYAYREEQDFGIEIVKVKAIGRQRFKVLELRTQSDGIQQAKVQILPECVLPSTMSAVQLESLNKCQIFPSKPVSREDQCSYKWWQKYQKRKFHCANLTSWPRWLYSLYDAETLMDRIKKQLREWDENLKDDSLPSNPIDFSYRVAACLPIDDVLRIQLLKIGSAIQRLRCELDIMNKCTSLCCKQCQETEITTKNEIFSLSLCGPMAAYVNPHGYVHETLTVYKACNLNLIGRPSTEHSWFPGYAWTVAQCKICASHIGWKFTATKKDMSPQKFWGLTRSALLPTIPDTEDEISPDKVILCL
# [2] = biological target: T1, Protein cereblon/Tyrosine-protein phosphatase non-receptor type 1; assay: PROTAC activity at PTP1B/CRBN in insulin treated human HepG2 cells assessed as protein degradation at 1 nM incubated for 72 hrs by Western blot analysis relative to control; format: cell-based
# Target sequence in this assay (P18031 whole entry, looked up): as the sequence (P18031 whole entry, looked up) above
# Target sequence in this assay (Q96SW2 whole entry, looked up): as the sequence (Q96SW2 whole entry, looked up) above
# [3] = system: HepG2; assay: Hypoglycemic activity in human HepG2 cells assessed as upregulation of IRS-1 expression at 250 to 500 nM incubated for 24 hrs by Western blot analysis; format: functional, cell-based; settings: dose 250-500 nM
# [4] = biological target: T1, Protein cereblon/Tyrosine-protein phosphatase non-receptor type 1; assay: PROTAC activity at PTP1B/CRBN in insulin treated human HepG2 cells assessed as protein degradation at 100 nM incubated for 24 hrs in presence of MG-132 by Western blot analysis; format: cell-based
# Target sequence in this assay (P18031 whole entry, looked up): as the sequence (P18031 whole entry, looked up) above
# Target sequence in this assay (Q96SW2 whole entry, looked up): as the sequence (Q96SW2 whole entry, looked up) above
# [5] = biological target: Protein cereblon/Tyrosine-protein phosphatase non-receptor type 11 (Homo sapiens) (UniProt Q06124+Q96SW2); assay: PROTAC activity at SHP2/CRBN in insulin treated human HepG2 cells assessed as protein degradation at 250 to 500 nM incubated for 24 hrs by Western blot analysis; format: cell-based; settings: dose 250-500 nM
# [6] = system: Mus musculus; assay: Anti-diabetic activity in KM mouse assessed as reduction in area under the curve of blood glucose measured for 0 to 120 mins at 40 mg/kg single dose by oral glucose tolerance test (oGTT); format: functional; parameters: scale not given: the % may be the effect or the level left; settings: time 0-120 min
# [7] = biological target: T1, Protein cereblon/Tyrosine-protein phosphatase non-receptor type 1; assay: PROTAC activity at PTP1B/CRBN in insulin treated human HepG2 cells assessed as protein degradation at 25 nM incubated for 48 hrs by Western blot analysis relative to control; format: cell-based
# Target sequence in this assay (P18031 whole entry, looked up): as the sequence (P18031 whole entry, looked up) above
# Target sequence in this assay (Q96SW2 whole entry, looked up): as the sequence (Q96SW2 whole entry, looked up) above
# [8] = biological target: T1, Protein cereblon/Tyrosine-protein phosphatase non-receptor type 1; assay: PROTAC activity at PTP1B/CRBN in insulin treated human HepG2 cells assessed as protein degradation at 250 to 500 nM incubated for 24 hrs by Western blot analysis; format: cell-based; settings: dose 250-500 nM
# Target sequence in this assay (P18031 whole entry, looked up): as the sequence (P18031 whole entry, looked up) above
# Target sequence in this assay (Q96SW2 whole entry, looked up): as the sequence (Q96SW2 whole entry, looked up) above
# [9] = system: Mus musculus; assay: Anti-diabetic activity in KM mouse assessed as reduction in blood glucose measured for 0 to 120 mins at 40 mg/kg single dose by oral glucose tolerance test (oGTT) relative to control; format: functional; settings: time 0-120 min
# [10] = system: HepG2; assay: Hypoglycemic activity in human HepG2 cells assessed as upregulation of Akt phosphorylation at 250 to 500 nM incubated for 24 hrs by Western blot analysis; format: functional, cell-based; settings: dose 250-500 nM
# [11] = biological target: T1, Protein cereblon/Tyrosine-protein phosphatase non-receptor type 1; assay: PROTAC activity at PTP1B/CRBN in insulin treated human HepG2 cells assessed as protein degradation at 125 nM incubated for 72 hrs by Western blot analysis relative to control; format: cell-based
# Target sequence in this assay (P18031 whole entry, looked up): as the sequence (P18031 whole entry, looked up) above
# Target sequence in this assay (Q96SW2 whole entry, looked up): as the sequence (Q96SW2 whole entry, looked up) above
# [12] = biological target: T1, Protein cereblon/Tyrosine-protein phosphatase non-receptor type 1; assay: PROTAC activity at PTP1B/CRBN in insulin treated human HepG2 cells assessed as protein degradation at 500 nM incubated for 48 hrs by Western blot analysis relative to control; format: cell-based
# [13] = biological target: T1, Protein cereblon/Tyrosine-protein phosphatase non-receptor type 1; assay: PROTAC activity at PTP1B/CRBN in insulin treated human HepG2 cells assessed as protein degradation half life at 500 nM by Western blot analysis; format: cell-based
# [14] = biological target: T1, Protein cereblon/Tyrosine-protein phosphatase non-receptor type 1; assay: PROTAC activity at PTP1B/CRBN in insulin treated human HepG2 cells assessed as protein degradation at 25 nM incubated for 72 hrs by Western blot analysis relative to control; format: cell-based
# [15] = biological target: Protein cereblon/Tyrosine-protein phosphatase non-receptor type 22 (Homo sapiens) (UniProt Q9Y2R2+Q96SW2); assay: PROTAC activity at LYP/CRBN in insulin treated human HepG2 cells assessed as protein degradation at 250 to 500 nM incubated for 24 hrs by Western blot analysis; format: cell-based; settings: dose 250-500 nM
# [16] = biological target: T1, Protein cereblon/Tyrosine-protein phosphatase non-receptor type 1; assay: PROTAC activity at PTP1B/CRBN in insulin treated human HepG2 cells assessed as protein degradation incubated for 72 hrs by Western blot analysis; format: cell-based
# [17] = biological target: T1, Protein cereblon/Tyrosine-protein phosphatase non-receptor type 1; assay: PROTAC activity at PTP1B/CRBN in insulin treated human HepG2 cells assessed as protein degradation at 100 nM incubated for 24 hrs in presence of pomalidomide by Western blot analysis; format: cell-based
# [18] = biological target: T1, Protein cereblon/Tyrosine-protein phosphatase non-receptor type 1; assay: PROTAC activity at PTP1B/CRBN in insulin treated human HepG2 cells assessed as protein degradation at 1250 nM incubated for 72 hrs by Western blot analysis relative to control; format: cell-based
# [19] = biological target: Protein cereblon/Tyrosine-protein phosphatase non-receptor type 6 (Homo sapiens) (UniProt P29350+Q96SW2); assay: PROTAC activity at SHP1/CRBN in insulin treated human HepG2 cells assessed as protein degradation at 250 to 500 nM incubated for 24 hrs by Western blot analysis; format: cell-based; settings: dose 250-500 nM
# [20] = biological target: T1, Protein cereblon/Tyrosine-protein phosphatase non-receptor type 1; assay: PROTAC activity at PTP1B/CRBN in insulin treated human HepG2 cells assessed as protein degradation incubated for 48 hrs by Western blot analysis; format: cell-based
# [21] = biological target: Protein cereblon/Receptor-type tyrosine-protein phosphatase C (Homo sapiens) (UniProt P08575+Q96SW2); assay: PROTAC activity at CD45/CRBN in insulin treated human HepG2 cells assessed as protein degradation at 250 to 500 nM incubated for 24 hrs by Western blot analysis; format: cell-based; settings: dose 250-500 nM
# [22] = biological target: T1, Protein cereblon/Tyrosine-protein phosphatase non-receptor type 1; assay: PROTAC activity at PTP1B/CRBN in insulin treated human HepG2 cells assessed as protein degradation at 625 nM incubated for 72 hrs by Western blot analysis relative to control; format: cell-based
# [23] = biological target: T1, Protein cereblon/Tyrosine-protein phosphatase non-receptor type 1; assay: PROTAC activity at PTP1B/CRBN in insulin treated human HepG2 cells assessed as protein degradation at 625 nM incubated for 48 hrs by Western blot analysis relative to control; format: cell-based
# [24] = biological target: T1, Protein cereblon/Tyrosine-protein phosphatase non-receptor type 1; assay: PROTAC activity at PTP1B/CRBN in insulin treated human HepG2 cells assessed as protein degradation at 5 nM incubated for 48 hrs by Western blot analysis relative to control; format: cell-based
# [25] = biological target: T1, Protein cereblon/Tyrosine-protein phosphatase non-receptor type 1; assay: PROTAC activity at PTP1B/CRBN in insulin treated human HepG2 cells assessed as protein degradation at 1 nM incubated for 48 hrs by Western blot analysis relative to control; format: cell-based
# [26] = biological target: T1, Protein cereblon/Tyrosine-protein phosphatase non-receptor type 1; assay: PROTAC activity at PTP1B/CRBN in insulin treated human HepG2 cells assessed as protein degradation at 1250 nM incubated for 48 hrs by Western blot analysis relative to control; format: cell-based
# [27] = biological target: T1, Protein cereblon/Tyrosine-protein phosphatase non-receptor type 1; assay: PROTAC activity at PTP1B/CRBN in insulin treated human HepG2 cells assessed as protein degradation at 5 nM incubated for 72 hrs by Western blot analysis relative to control; format: cell-based
# [28] = biological target: T1, Protein cereblon/Tyrosine-protein phosphatase non-receptor type 1; assay: PROTAC activity at PTP1B/CRBN in insulin treated human HepG2 cells assessed as protein degradation at 50 nM incubated for 48 hrs by Western blot analysis relative to control; format: cell-based
# [29] = system: HepG2; assay: Hypoglycemic activity in human HepG2 cells assessed as upregulation of PI3K expression at 250 to 500 nM incubated for 24 hrs by Western blot analysis; format: functional, cell-based; settings: dose 250-500 nM
# [30] = biological target: T1, Protein cereblon/Tyrosine-protein phosphatase non-receptor type 1; assay: PROTAC activity at PTP1B/CRBN in insulin treated human HepG2 cells assessed as protein degradation at 5000 nM incubated for 48 hrs by Western blot analysis relative to control; format: cell-based
# [31] = system: Mus musculus; assay: Anti-diabetic activity in KM mouse assessed as reduction in area under the curve of blood glucose measured for 0 to 120 mins at 10 mg/kg single dose by oral glucose tolerance test (oGTT); format: functional; parameters: scale not given: the % may be the effect or the level left; settings: time 0-120 min
# [32] = system: Mus musculus; assay: Anti-diabetic activity in KM mouse assessed as reduction in area under the curve of blood glucose measured for 0 to 120 mins at 20 mg/kg single dose by oral glucose tolerance test (oGTT); format: functional; parameters: scale not given: the % may be the effect or the level left; settings: time 0-120 min
# [33] = biological target: T1, Protein cereblon/Tyrosine-protein phosphatase non-receptor type 1; assay: PROTAC activity at PTP1B/CRBN in insulin treated human HepG2 cells assessed as protein degradation at 100 nM incubated for 24 hrs in presence of […] by Western blot analysis; format: cell-based
# Chain of Protein cereblon/Tyrosine-protein phosphatase non-receptor type 6 (Homo sapiens) (P29350 whole entry, looked up): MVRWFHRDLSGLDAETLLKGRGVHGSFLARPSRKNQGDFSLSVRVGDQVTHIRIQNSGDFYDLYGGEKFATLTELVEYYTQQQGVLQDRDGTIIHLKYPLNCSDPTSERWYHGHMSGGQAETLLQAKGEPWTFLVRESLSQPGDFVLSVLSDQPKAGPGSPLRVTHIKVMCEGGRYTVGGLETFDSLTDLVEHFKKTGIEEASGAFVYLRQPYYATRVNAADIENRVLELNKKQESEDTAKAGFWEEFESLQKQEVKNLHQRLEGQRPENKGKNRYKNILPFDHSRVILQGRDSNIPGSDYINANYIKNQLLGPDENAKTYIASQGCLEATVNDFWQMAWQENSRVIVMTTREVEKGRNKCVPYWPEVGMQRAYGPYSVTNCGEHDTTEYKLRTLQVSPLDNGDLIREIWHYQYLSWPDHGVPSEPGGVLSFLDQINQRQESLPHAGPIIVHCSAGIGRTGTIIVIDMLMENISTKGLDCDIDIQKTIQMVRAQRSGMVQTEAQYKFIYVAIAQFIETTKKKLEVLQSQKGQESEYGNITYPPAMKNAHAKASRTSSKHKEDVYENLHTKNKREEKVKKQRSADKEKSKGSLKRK
# Chain of Protein cereblon/Tyrosine-protein phosphatase non-receptor type 6 (Homo sapiens) (Q96SW2 whole entry, looked up): as the sequence (Q96SW2 whole entry, looked up) above
# Chain of Protein cereblon/Tyrosine-protein phosphatase non-receptor type 22 (Homo sapiens) (Q96SW2 whole entry, looked up): as above
# Chain of Protein cereblon/Tyrosine-protein phosphatase non-receptor type 22 (Homo sapiens) (Q9Y2R2 whole entry, looked up): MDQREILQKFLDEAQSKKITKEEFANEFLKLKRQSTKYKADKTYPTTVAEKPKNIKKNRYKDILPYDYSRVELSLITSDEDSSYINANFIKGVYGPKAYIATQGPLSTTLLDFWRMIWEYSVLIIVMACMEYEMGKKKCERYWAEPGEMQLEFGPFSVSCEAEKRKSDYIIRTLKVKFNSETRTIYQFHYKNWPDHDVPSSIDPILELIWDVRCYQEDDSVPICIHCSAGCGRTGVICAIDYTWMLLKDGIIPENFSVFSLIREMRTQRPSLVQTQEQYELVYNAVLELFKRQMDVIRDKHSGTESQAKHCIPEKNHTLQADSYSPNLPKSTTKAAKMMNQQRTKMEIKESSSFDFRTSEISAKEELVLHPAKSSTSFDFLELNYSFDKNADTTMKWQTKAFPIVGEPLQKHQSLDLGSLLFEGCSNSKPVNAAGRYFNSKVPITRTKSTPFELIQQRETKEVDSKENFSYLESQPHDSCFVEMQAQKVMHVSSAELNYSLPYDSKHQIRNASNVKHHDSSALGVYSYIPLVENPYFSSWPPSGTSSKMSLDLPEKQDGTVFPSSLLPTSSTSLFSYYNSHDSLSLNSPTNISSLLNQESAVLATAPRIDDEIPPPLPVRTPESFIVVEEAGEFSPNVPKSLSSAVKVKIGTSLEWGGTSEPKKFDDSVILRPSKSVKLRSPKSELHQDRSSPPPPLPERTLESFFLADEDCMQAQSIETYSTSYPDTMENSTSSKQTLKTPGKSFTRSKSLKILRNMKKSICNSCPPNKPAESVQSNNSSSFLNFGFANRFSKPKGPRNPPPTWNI
# Chain of Protein cereblon/Tyrosine-protein phosphatase non-receptor type 11 (Homo sapiens) (Q06124 2-593 limits assumed): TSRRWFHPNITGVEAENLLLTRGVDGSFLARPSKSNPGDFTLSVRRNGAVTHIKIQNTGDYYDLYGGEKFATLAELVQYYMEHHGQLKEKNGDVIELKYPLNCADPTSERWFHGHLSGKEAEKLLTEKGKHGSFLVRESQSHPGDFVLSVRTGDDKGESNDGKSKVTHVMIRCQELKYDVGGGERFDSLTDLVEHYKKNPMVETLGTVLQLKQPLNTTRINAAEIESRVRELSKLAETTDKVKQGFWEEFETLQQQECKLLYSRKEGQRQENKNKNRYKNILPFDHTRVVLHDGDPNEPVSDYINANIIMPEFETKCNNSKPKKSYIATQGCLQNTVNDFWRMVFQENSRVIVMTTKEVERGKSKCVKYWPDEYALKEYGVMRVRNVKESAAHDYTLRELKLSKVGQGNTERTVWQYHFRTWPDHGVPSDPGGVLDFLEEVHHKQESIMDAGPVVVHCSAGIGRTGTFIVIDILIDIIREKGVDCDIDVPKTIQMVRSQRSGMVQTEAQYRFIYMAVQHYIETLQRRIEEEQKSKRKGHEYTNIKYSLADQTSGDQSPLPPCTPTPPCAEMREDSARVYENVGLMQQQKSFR
# Chain of Protein cereblon/Tyrosine-protein phosphatase non-receptor type 11 (Homo sapiens) (Q96SW2 whole entry partner): as the sequence (Q96SW2 whole entry, looked up) above
structure (smiles),measurement,setting,value
CC1(C)CC[C@]2(C(=O)NCCCCCCOCCOCCOCCOCCCCCC(=O)Nc3cccc4c3C(=O)N(C3CCC(=O)NC3=O)C4=O)CC[C@]3(C)C(=CC[C@@H]4[C@@]5(C)CC[C@H](O)C(C)(C)[C@@H]5CC[C@]43C)[C@@H]2C1 (stereo not given in full),Activity,[1],46%
same,Activity,[2],< 5%
same,Activity,[3],Active
same,Activity,[4],inactive
same,Activity,[5],inactive
same,Activity,[6],21.8%
same,Activity,[7],51%
same,Activity,[8],100%
same,inhibition in vivo at 40 mg/kg,[9],29%
same,Activity,[10],Active
same,Activity,[11],58%
same,Activity,[12],27%
same,T1/2,[13],4 h
same,Activity,[14],58%
same,Activity,[15],inactive
same,Activity,[16],Dose-Dependent Effect
same,DC50,[16],0.05 µM
same,Activity,[17],Active
same,Activity,[18],48%
same,Activity,[19],inactive
same,Activity,[20],Dose-Dependent Effect
same,DC50,[20],0.2 µM
same,Activity,[21],inactive
same,Activity,[22],43%
same,Activity,[23],43%
same,Activity,[24],51%
same,Activity,[25],8%
same,Activity,[26],71%
same,Activity,[27],40%
same,Activity,[28],20%
same,Activity,[29],Active
same,Activity,[30],20%
same,Activity,[31],8.6%
same,Activity,[32],14.8%
same,Activity,[33],inactive
